{"source": "patent US10414721B1", "about": "“Inhibitor of endocannabinoid cellular reuptake” (University of Bern, priority 2018, dated 2019)", "key": {"BALB/c mice [1]": {"system": "BALB/c mice", "experiment": "LPS-induced endotoxemia", "format": "in vivo, mouse", "conditions": "5 and 10 mg/kg", "method": "(§1) WOBE437 was initially assessed in a battery of four individual tests typically associated with CB1 receptor activation in mice (nociception, locomotion, body temperature and cataleptic behavior), collectively referred to as the “tetrad”. Dose-response experiments identified 10 mg/kg as the lowest dose to elicit a moderate but complete tetrad in BALB/c mice upon intraperitoneal (i.p.) administration (FIGS. 3A-D). […] To assess whether the WOBE437-induced effects were CB1 receptor-mediated, mice were pre-treated with the selective antagonist/inverse agonist rimonabant (SR1). […] These experiments provided a proof-of-concept for the mechanism of action of WOBE437 as a novel “indirect CB1 receptor agonist”. In subsequent studies, the effects of WOBE437 in pain, inflammatory and anxiety models were investigated. […] Both effects were reversed by SR1.\n(§2) WOBE437 and RX-055 were tested in independent laboratories, in different mouse strains and in multiple (behavioral) models for cannabimimetic, analgesic, anti-inflammatory and anxiolytic-effects in wild-type and phenotypical CB1-KO mice as described in Chicca 2017."}, "COX-2": {"target": "COX-2 (Homo sapiens, UniProt P35354)", "sequence (P35354 18-604)": "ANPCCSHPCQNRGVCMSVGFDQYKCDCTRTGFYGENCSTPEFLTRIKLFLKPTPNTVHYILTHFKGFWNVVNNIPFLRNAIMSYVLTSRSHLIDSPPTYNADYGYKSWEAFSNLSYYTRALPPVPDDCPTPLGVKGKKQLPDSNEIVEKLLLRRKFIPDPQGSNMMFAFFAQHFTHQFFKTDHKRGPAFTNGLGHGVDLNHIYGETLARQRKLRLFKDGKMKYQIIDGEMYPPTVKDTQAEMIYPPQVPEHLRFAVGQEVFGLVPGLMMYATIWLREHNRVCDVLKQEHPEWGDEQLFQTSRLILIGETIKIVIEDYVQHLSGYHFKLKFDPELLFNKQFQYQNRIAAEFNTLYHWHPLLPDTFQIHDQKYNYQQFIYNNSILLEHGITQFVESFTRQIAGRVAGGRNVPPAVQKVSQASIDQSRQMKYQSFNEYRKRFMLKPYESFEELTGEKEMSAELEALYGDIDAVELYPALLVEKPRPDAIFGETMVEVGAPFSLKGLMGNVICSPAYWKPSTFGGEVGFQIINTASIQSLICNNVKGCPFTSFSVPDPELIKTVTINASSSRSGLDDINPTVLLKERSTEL", "experiment": "COX-2 activity assay", "format": "biochemical", "method": "FAAH, ABHDs, MAGL and COX-2 activity assays were performed using cell homogenates, human recombinant enzymes and mouse, rat and pig brain homogenates as previously described."}, "BALB/c mice [2]": {"system": "BALB/c mice", "experiment": "Tetrad test after i.p. administration", "format": "in vivo, mouse", "method": "as §1, §2"}, "CB1 receptors": {"system": "CB1 receptors", "experiment": "Functional CB1 receptors in brain after repeated treatment", "format": "in vivo, mouse", "conditions": "7 days of daily treatment", "method": "CB1 and CB2 receptor binding assays [^35S]GTPγS assays were performed as previously described. WOBE437 was profiled in more detail in an extended CNS adverse drug reaction screening panel (CEREP)."}, "BALB/c male mice": {"system": "BALB/c male mice", "experiment": "Endocannabinoid and NAE levels 1 h after oral administration", "format": "in vivo, mouse", "conditions": "for 2-AG level in plasma: control 16.1±2.9", "method": "Male C57BL6/J or male BALB/c mice were orally administered by gavage with 10, 25, 50 or 100 mg/kg of WOBE437 (100 μL; olive oil and ethanol 8:2) using a metal feeding needle (20G, Kent Scientific, USA). The mice were sacrificed by decapitation after gavage administration. Brain, blood, liver, kidney and spleen were collected for the LC-MS/MS analyses. All tissues were briefly washed with ice cold PBS and immediately snap-frozen and stored at −80° C. Whole brain samples were dissected between the hemispheres. Blood samples were immediately centrifuged to obtain plasma, which was stored at −80° C.\nSamples extractions and LC-MS/MS measurements were performed as previously described (Chicca et al., 2017). Briefly, tissues were weighted and transferred in to extraction tubes containing three steel beads and 0.1 M formic acid. Tissues were homogenized and rapidly transferred to glass tubes containing 1.5 mL of ethyl acetate:hexane (9:1) 0.1% formic acid and internal standards (ISs). Samples were centrifuged and the organic phase was recovered. After evaporation, the extracts were reconstituted in 200 μL of ACN:ddH2O (8:2). 10 μL of the solution were injected in the LC-MS/MS system using the same LC and ionization protocols as described (Chicca et al., 2017)."}, "major serine hydrolases [3]": {"system": "major serine hydrolases", "experiment": "Activity-based protein profiling (ABPP) in mouse brain membranes", "format": "biochemical", "conditions": "membranes from mouse brain", "method": "ABPP experiments were performed using membrane preparations obtained from mouse brains as described earlier."}, "[4]": {"system": "EC efflux and release in U937 cells", "experiment": "EC efflux and release in U937 cells", "format": "cell-based", "method": "(§3) All radioactivity-based AEA and 2-AG uptake and release assays performed in U937, and HMC-1 cells were carried out using two different assay formats as previously reported. AEA and 2-AG uptake assay in Neuro2a and primary mouse cortical neurons were performed with a different method disclosed in Chicca 2017."}, "BALB/c mice [5]": {"system": "BALB/c mice", "experiment": "Complete Freund's adjuvant induced monoarthritis", "format": "in vivo, mouse", "method": "BALB/c mice were anesthetized with xylazine/ketamine (5 and 10 mg/kg, respectively) and subsequently monoarthritis was induced by intra-articular injection of complete Freund's adjuvant (CFA, 40 μL; Sigma-Aldrich, St. Louis, USA) into the right knee joint. The inflammation was allowed to develop for 14 days prior to pharmacological treatments starting at day 15 for 1 or 3 days, respectively. Mechanical sensitivity (allodynia) and knee diameter (edema) were evaluated 1 h post treatment in the ipsilateral and contralateral knees. Articular sensitivity was evaluated using a digital algometer (Bioseb, USA). […] A cut-off force of 300 g was considered to avoid damage in the tissue. The measurements were done in triplicates and the average was considered for the statistical analysis. To evaluate the degree of inflammation, knee diameter was measured in both extremities using a digital micrometer (Mitutoyo, USA). WOBE437 was administered at doses of 2.5, 5 or 10 mg/kg, either as single dose or for 3 days treatment. To evaluate the involvement of CB1 and CB2 receptors, TRPV1 and PPARγ, rimonabant (5 mg/kg, CB1 receptor antagonist/inverse agonist), SR144528 (3 mg/kg, CB2 receptor antagonist/inverse agonist; Cayman Chemical, USA), capsazepine (5 mg/kg, TRPV1 antagonist; Tocris Bioscience, UK) and GW9662 (3 mg/kg, PPARγ antagonist; Tocris Bioscience, UK) were injected 30 min before WOBE437 administration. Indomethacin (5 mg/kg; Sigma-Aldrich, USA) was used as a reference drug (positive control). For all the compounds, dimethylsulfoxide (DMSO) was used as vehicle (20 μL, i.p.)."}, "major serine hydrolases [6]": {"system": "major serine hydrolases", "experiment": "Serine hydrolase activity in vivo", "conditions": "mouse"}, "[7]": {"system": "AEA uptake in HMC-1 human mast cells", "experiment": "AEA uptake inhibition in FAAH-deficient HMC-1 cells", "format": "cell-based", "method": "as §3"}, "[8]": {"system": "AEA uptake in primary mouse cortical neurons", "experiment": "AEA uptake in primary mouse cortical neurons", "format": "cell-based", "conditions": "Cortical neurone", "method": "as §3"}}, "data": [{"molecule": "CCCCCCC/C=C/C=C/C(=O)NCCc1ccc(OC)c(OC)c1", "note": "[WOBE437, (2E,4E)-N-[2-(3,4-Dimethoxyphenyl)ethyl]dodeca-2,4-dienamide]", "values": [{"measurement": "effect in LPS-induced endotoxemia", "setting": "BALB/c mice [1]", "value": "protective effects"}, {"measurement": "inhibition of COX-2 activity", "setting": "COX-2", "value": "did not inhibit"}, {"measurement": "tetrad response", "setting": "BALB/c mice [2]; 3 mg/kg", "value": "ineffective"}, {"measurement": "tetrad response", "setting": "BALB/c mice [2]; 10 mg/kg", "value": "full tetrad response"}, {"measurement": "tetrad in CB1 receptor-deficient littermates", "setting": "BALB/c mice [2]; C57BL6/N background", "value": "completely absent"}, {"measurement": "tetrad effects after pre-treatment with rimonabant (SR1)", "setting": "BALB/c mice [2]; hypothermia, catalepsy and antinociception", "value": "completely blocked by SR1"}, {"measurement": "hypothermia, catalepsy and antinociception compared to (R)-WIN55,212-2", "setting": "BALB/c mice [2]; i.p.", "value": "significantly less pronounced"}, {"measurement": "lowest dose to elicit a complete tetrad", "setting": "BALB/c mice [2]; i.p., BALB/c mice", "value": 10, "unit": "mg/kg"}, {"measurement": "number of functional CB1 receptors in the brain", "setting": "CB1 receptors", "value": "did not affect"}, {"measurement": "2-AG level in plasma", "setting": "BALB/c male mice; 25 mg/kg p.o.", "value": "21.4 ± 4.5", "unit": "pmol/mL"}, {"measurement": "reduction of AEA concentration in plasma", "setting": "BALB/c male mice; 50 mg/kg p.o.", "value": 23, "unit": "%"}, {"measurement": "2-AG levels in somatosensory cortex", "setting": "BALB/c male mice; 50 mg/kg p.o., 1 h", "value": "no changes"}, {"measurement": "AEA levels in somatosensory cortex", "setting": "BALB/c male mice; 50 mg/kg p.o., 1 h", "value": "significant increase"}, {"measurement": "AEA concentration in plasma", "setting": "BALB/c male mice; 50 mg/kg p.o., control 2.6±0.2", "value": "2.2 ± 0.3", "unit": "pmol/mL"}, {"measurement": "2-AG concentration in total brain", "setting": "BALB/c male mice; 50 mg/kg p.o., control 10.8±2.6", "value": "13.9 ± 2.6", "unit": "nmol/g"}, {"measurement": "2-AG level in plasma", "setting": "BALB/c male mice; 50 mg/kg p.o.", "value": "22.6 ± 4.8", "unit": "pmol/mL"}, {"measurement": "2-AG level in plasma", "setting": "BALB/c male mice; 100 mg/kg p.o.", "value": "23.8 ± 5.7", "unit": "pmol/mL"}, {"measurement": "increase of 2-AG levels in plasma", "setting": "BALB/c male mice; 25, 50 and 100 mg/kg p.o.", "value": 40, "unit": "%"}, {"measurement": "AEA and 2-AG levels in total brain", "setting": "BALB/c male mice; p.o., 1 h", "value": "tendency to increase"}, {"measurement": "levels of N-acylethanolamines other than AEA", "setting": "BALB/c male mice; somatosensory cortex, total brain or plasma", "value": "No changes"}, {"measurement": "inhibition of major serine hydrolases (ABPP)", "setting": "major serine hydrolases [3]", "value": "does not inhibit any of the major serine hydrolases"}, {"measurement": "inhibition of EC release", "setting": "[4]", "value": 20, "unit": "%"}, {"measurement": "effect on EC release", "setting": "[4]; cells stimulated with ATP, thapsigargin and ionomycin", "value": "blocked the release of both ECs"}, {"measurement": "effect on AEA efflux", "setting": "[4]; pre-loaded U937 cells", "value": "inhibited the efflux of AEA"}, {"measurement": "melting point", "value": 112, "unit": "°C"}, {"measurement": "antiallodynia and antiinflammatory effects after rimonabant, SR144528 or GW9662 pre-treatment", "setting": "BALB/c mice [5]; 10 mg/kg i.p., 3 days", "value": "fully abolished"}, {"measurement": "reduction of inflammation (edema)", "setting": "BALB/c mice [5]; 10 mg/kg i.p., 3 days", "value": 58, "unit": "%"}, {"measurement": "reduction in allodynia", "setting": "BALB/c mice [5]; 10 mg/kg i.p., 3 days, as compared to contralateral knee", "value": 52, "unit": "%"}, {"measurement": "knee diameter", "setting": "BALB/c mice [5]; 10 mg/kg i.p., 3 days, vehicle 6.5±0.9, contralateral 4.5±0.3", "value": "5.3±0.4", "unit": "mm"}, {"measurement": "allodynia after single dose", "setting": "BALB/c mice [5]; 10 mg/kg i.p., single dose", "value": "significantly decrease allodynia"}, {"measurement": "antiallodynia effect after SR144528 (3 mg/kg) or capsazepine (5 mg/kg) pre-treatment", "setting": "BALB/c mice [5]; 10 mg/kg i.p., single dose", "value": "completely prevented"}, {"measurement": "antiallodynia effect after rimonabant or GW9662 pre-treatment", "setting": "BALB/c mice [5]; 10 mg/kg i.p., single dose", "value": "did not block"}, {"measurement": "allodynia and edema", "setting": "BALB/c mice [5]; 2.5 and 5.0 mg/kg i.p.", "value": "did not show any significant changes"}, {"measurement": "inhibition of major serine hydrolases in vivo", "setting": "major serine hydrolases [6]", "value": "did not inhibit"}, {"measurement": "IC50", "setting": "[7]; HMC1, FAAH-deficient HMC-1 human mast cells, estimated", "value": "~137", "unit": "nM"}, {"measurement": "Hill slope, AEA uptake", "setting": "[7]; HMC-1 cells", "value": "−0.934"}, {"measurement": "inhibition at 1 µM", "setting": "[8]; 2-7 min of incubation", "value": 50, "unit": "%"}, {"measurement": "inhibition at 1 µM", "setting": "[8]; 10-20 min of incubation", "value": "20 to 35", "unit": "%"}]}]}
